Laboratory results from US8034928B2, “Fluorescence assays with improved sensitivity” (Wisconsin Alumni Research Foundation, priority 2003, dated 2011).

Assays:
HeLa cells = assay: Fluorescence microscopy of HeLa cells incubated with pro-fluorophore in DMEM; format: cell-based; details: 10 μM, 2 h, 37° C., unwashed cells
Method: FIGS. 3B and C show unwashed HeLa cells incubated for 2 h with fluorescein diacetate (panel B; 10 μM) or 3 (panel C; 10 μM) at 37° C. in DMEM (5% CO2, 100% humidity). In FIG. 3C, the grey/white areas show the intensity of the fluorescence with the highest fluorescence shown as the lightest shade.
Fluorescence microscopy was used to determine the fate of fluorescein diacetate and pro-fluorophore 3 in DMEM containing HeLa cells.

[1] = Stability: generation of fluorescence in PBS, DMEM or water without trigger; format: physicochemical; details: DMEM and PBS, 5 μM, no cells
Method: The biological utility of pro-fluorophore 3 was then studied. To be useful, a latent fluorophore must remain non-fluorescent or have a small fluorescence in a biological environment. Accordingly, the accumulation of fluorescence in Dulbecco's modified Eagle's medium (DMEM) and phosphate-buffered saline (PBS) containing either fluorescein diacetate (which is a widely used pro-fluorophore) or 3 were studied.
A solution of pro-fluorophore 3 (5 μM) in 2 mL PBS was treated with PLE (0.5 μg), and the mixture was kept at room temperature for 4 h. The fluorescence excitation-emission spectra of the solution were recorded. The procedure was repeated for a solution of pro-fluorophore 3 treated in an identical manner, except for the addition of PLE.

With `CC(=O)Oc1ccc2c(c1)Oc1cc(OC(C)=O)ccc1C21OC(=O)c2ccccc21` [fluorescein diacetate] as the compound, how does the “fluorescence in HeLa cells” value (HeLa cells) read?
The value was “much greater in the medium than in HeLa cells”.

And the “accumulation of fluorescence in medium (stability)” value [1]?
Its value is “became fluorescent in minutes”.
